Values quoted from earlier work, collected in patent US3968207A, “Method of controlling fleas and ticks on cats and dogs” (priority 1975, dated 1976).

Test system: lice
Details: single spray treatment; cited from earlier work

Structure (SMILES): CCOP(=S)(OCC)Oc1nc(Cl)c(Cl)cc1Cl [Dursban, O,O-diethyl O-(3,5,6-trichloro-2-pyridyl)phosphorothioate]
- control of lice on cattle: effective control
